In PubChem BioAssay (NCI):
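Results reflect a 48-hour exposure of cells in 96-well plates to compound at five concentrations. TGI denotes the concentration required for complete inhibition of growth.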

Assays:
Test in all cases: growth of human tumour cells (NCI), 48 h
A498 renal = test system: A498 renal
OVCAR-5 ovarian = test system: OVCAR-5 ovarian
RXF 393 renal = test system: RXF 393 renal
U251 CNS = test system: U251 CNS
786-0 renal = test system: 786-0 renal
COLO 205 colon = test system: COLO 205 colon
HCT-15 colon = test system: HCT-15 colon
UACC-257 melanoma = test system: UACC-257 melanoma
NCI-H23 lung = test system: NCI-H23 lung
SF-539 CNS = test system: SF-539 CNS
PC-3 prostate = test system: PC-3 prostate
MALME-3M melanoma = test system: MALME-3M melanoma
HCC-2998 colon = test system: HCC-2998 colon
NCI/ADR-RES ovarian = test system: NCI/ADR-RES ovarian
ACHN renal = test system: ACHN renal
CAKI-1 renal = test system: CAKI-1 renal
HL-60(TB) leukemia = test system: HL-60(TB) leukemia
HCT-116 colon = test system: HCT-116 colon
IGROV1 ovarian = test system: IGROV1 ovarian
RPMI-8226 leukemia = test system: RPMI-8226 leukemia
SK-MEL-28 melanoma = test system: SK-MEL-28 melanoma
DU-145 prostate = test system: DU-145 prostate
K-562 leukemia = test system: K-562 leukemia
SNB-19 CNS = test system: SNB-19 CNS
OVCAR-3 ovarian = test system: OVCAR-3 ovarian
NCI-H226 lung = test system: NCI-H226 lung
MDA-N = test system: MDA-N
SK-OV-3 ovarian = test system: SK-OV-3 ovarian
SN12C renal = test system: SN12C renal
MCF7 breast = test system: MCF7 breast
HOP-92 NSCLC = test system: HOP-92 NSCLC
MDA-MB-435 = test system: MDA-MB-435
TK-10 renal = test system: TK-10 renal
UACC-62 melanoma = test system: UACC-62 melanoma
UO-31 renal = test system: UO-31 renal
SW-620 colon = test system: SW-620 colon
MDA-MB-231 breast = test system: MDA-MB-231 breast
HT29 colon = test system: HT29 colon
HOP-62 NSCLC = test system: HOP-62 NSCLC
LOX IMVI melanoma = test system: LOX IMVI melanoma
M14 melanoma = test system: M14 melanoma
T-47D breast = test system: T-47D breast
NCI-H460 lung = test system: NCI-H460 lung
MOLT-4 leukemia = test system: MOLT-4 leukemia
CCRF-CEM leukemia = test system: CCRF-CEM leukemia
HS 578T breast = test system: HS 578T breast
SF-268 CNS = test system: SF-268 CNS
NCI-H522 lung = test system: NCI-H522 lung
SK-MEL-2 melanoma = test system: SK-MEL-2 melanoma
SNB-75 CNS = test system: SNB-75 CNS
A549 NSCLC = test system: A549 NSCLC
SR leukemia = test system: SR leukemia
OVCAR-4 ovarian = test system: OVCAR-4 ovarian
SF-295 CNS = test system: SF-295 CNS
SK-MEL-5 melanoma = test system: SK-MEL-5 melanoma
EKVX NSCLC = test system: EKVX NSCLC
KM12 colon = test system: KM12 colon
BT-549 breast = test system: BT-549 breast
OVCAR-8 ovarian = test system: OVCAR-8 ovarian
KM20L2 colon = test system: KM20L2 colon
XF 498 CNS = test system: XF 498 CNS
SNB-78 CNS = test system: SNB-78 CNS
DMS 114 small cell lung = test system: DMS 114 small cell lung
LXFL 529 NSCLC = test system: LXFL 529 NSCLC
M19-MEL melanoma = test system: M19-MEL melanoma
DLD-1 colon = test system: DLD-1 colon

CCOC(=O)CCc1cc(=O)oc2cc(O)cc(O)c12
TGI (A498 renal): > 100 µM | TGI (OVCAR-5 ovarian): > 100 µM | TGI (RXF 393 renal): > 100 µM | TGI (U251 CNS): > 100 µM | TGI (786-0 renal): > 100 µM | TGI (COLO 205 colon): > 100 µM | TGI (HCT-15 colon): > 100 µM | TGI (UACC-257 melanoma): > 100 µM | TGI (NCI-H23 lung): > 100 µM | TGI (SF-539 CNS): > 100 µM | TGI (PC-3 prostate): > 100 µM | TGI (MALME-3M melanoma): > 100 µM | TGI (HCC-2998 colon): > 100 µM | TGI (NCI/ADR-RES ovarian): > 100 µM | TGI (ACHN renal): > 100 µM | TGI (CAKI-1 renal): > 100 µM | TGI (HL-60(TB) leukemia): > 100 µM | TGI (HCT-116 colon): > 100 µM | TGI (IGROV1 ovarian): > 100 µM | TGI (RPMI-8226 leukemia): > 100 µM | TGI (SK-MEL-28 melanoma): > 100 µM | TGI (DU-145 prostate): > 100 µM | TGI (K-562 leukemia): > 100 µM | TGI (SNB-19 CNS): > 100 µM | TGI (OVCAR-3 ovarian): > 100 µM | TGI (NCI-H226 lung): > 100 µM | TGI (MDA-N): > 100 µM | TGI (SK-OV-3 ovarian): > 100 µM | TGI (SN12C renal): > 100 µM | TGI (MCF7 breast): > 100 µM | TGI (HOP-92 NSCLC): > 100 µM | TGI (MDA-MB-435): > 100 µM | TGI (TK-10 renal): > 100 µM | TGI (UACC-62 melanoma): > 100 µM | TGI (UO-31 renal): > 100 µM | TGI (SW-620 colon): > 100 µM | TGI (MDA-MB-231 breast): > 100 µM | TGI (HT29 colon): > 100 µM | TGI (HOP-62 NSCLC): > 100 µM | TGI (LOX IMVI melanoma): > 100 µM | TGI (M14 melanoma): > 100 µM | TGI (T-47D breast): > 100 µM | TGI (NCI-H460 lung): > 100 µM | TGI (MOLT-4 leukemia): > 100 µM | TGI (CCRF-CEM leukemia): > 100 µM | TGI (HS 578T breast): > 100 µM | TGI (SF-268 CNS): > 100 µM | TGI (NCI-H522 lung): > 100 µM | TGI (SK-MEL-2 melanoma): > 100 µM | TGI (SNB-75 CNS): > 100 µM | TGI (A549 NSCLC): > 100 µM | TGI (SR leukemia): > 100 µM | TGI (OVCAR-4 ovarian): > 100 µM | TGI (SF-295 CNS): > 100 µM | TGI (SK-MEL-5 melanoma): > 100 µM | TGI (EKVX NSCLC): > 100 µM | TGI (KM12 colon): > 100 µM | TGI (BT-549 breast): > 100 µM | TGI (OVCAR-8 ovarian): > 100 µM

COc1cc(/C=C2/C(=O)N(C(=O)c3ccccc3O)N=C2C)cc(OC)c1OC
TGI (A498 renal): 0.7 µM | TGI (OVCAR-5 ovarian): > 100 µM | TGI (RXF 393 renal): 8.74 µM | TGI (U251 CNS): > 100 µM | TGI (786-0 renal): > 100 µM | TGI (KM20L2 colon): > 100 µM | TGI (COLO 205 colon): > 100 µM | TGI (HCT-15 colon): > 100 µM | TGI (UACC-257 melanoma): > 100 µM | TGI (NCI-H23 lung): > 21.8 µM | TGI (XF 498 CNS): > 100 µM | TGI (SF-539 CNS): 6.39 µM | TGI (PC-3 prostate): > 100 µM | TGI (MALME-3M melanoma): > 100 µM | TGI (HCC-2998 colon): > 87.8 µM | TGI (NCI/ADR-RES ovarian): > 100 µM | TGI (ACHN renal): > 100 µM | TGI (CAKI-1 renal): > 25.8 µM | TGI (HL-60(TB) leukemia): > 60.3 µM | TGI (HCT-116 colon): > 29 µM | TGI (IGROV1 ovarian): 4.71 µM | TGI (RPMI-8226 leukemia): > 100 µM | TGI (SK-MEL-28 melanoma): > 100 µM | TGI (DU-145 prostate): > 100 µM | TGI (K-562 leukemia): > 100 µM | TGI (SNB-78 CNS): > 100 µM | TGI (SNB-19 CNS): > 100 µM | TGI (OVCAR-3 ovarian): 18.7 µM | TGI (NCI-H226 lung): > 100 µM | TGI (MDA-N): > 100 µM | TGI (SK-OV-3 ovarian): > 100 µM | TGI (SN12C renal): > 91.2 µM | TGI (DMS 114 small cell lung): 21.7 µM | TGI (MCF7 breast): 34.9 µM | TGI (HOP-92 NSCLC): > 83.9 µM | TGI (MDA-MB-435): > 100 µM | TGI (TK-10 renal): > 100 µM | TGI (UACC-62 melanoma): 16.9 µM | TGI (LXFL 529 NSCLC): > 100 µM | TGI (UO-31 renal): 6.81 µM | TGI (SW-620 colon): > 100 µM | TGI (MDA-MB-231 breast): > 100 µM | TGI (HT29 colon): > 100 µM | TGI (LOX IMVI melanoma): > 100 µM | TGI (M14 melanoma): > 100 µM | TGI (T-47D breast): > 100 µM | TGI (NCI-H460 lung): > 100 µM | TGI (M19-MEL melanoma): > 100 µM | TGI (MOLT-4 leukemia): > 100 µM | TGI (CCRF-CEM leukemia): > 100 µM | TGI (HS 578T breast): > 100 µM | TGI (SF-268 CNS): > 100 µM | TGI (NCI-H522 lung): 33.4 µM | TGI (SK-MEL-2 melanoma): > 29.4 µM | TGI (SNB-75 CNS): > 100 µM | TGI (A549 NSCLC): > 100 µM | TGI (OVCAR-4 ovarian): > 100 µM | TGI (SF-295 CNS): > 100 µM | TGI (DLD-1 colon): > 100 µM | TGI (SK-MEL-5 melanoma): 33.6 µM | TGI (EKVX NSCLC): > 100 µM | TGI (KM12 colon): > 100 µM | TGI (BT-549 breast): > 100 µM | TGI (OVCAR-8 ovarian): > 100 µM

CC1(O)CC(C(F)(F)F)(C(F)(F)F)OC1=O (stereo not drawn)
TGI (A498 renal): > 10 µM | TGI (OVCAR-5 ovarian): > 10 µM | TGI (U251 CNS): > 10 µM | TGI (786-0 renal): > 10 µM | TGI (COLO 205 colon): > 10 µM | TGI (HCT-15 colon): > 10 µM | TGI (UACC-257 melanoma): > 10 µM | TGI (NCI-H23 lung): > 10 µM | TGI (SF-539 CNS): > 10 µM | TGI (PC-3 prostate): > 10 µM | TGI (MALME-3M melanoma): > 10 µM | TGI (HCC-2998 colon): > 10 µM | TGI (NCI/ADR-RES ovarian): > 10 µM | TGI (ACHN renal): > 10 µM | TGI (CAKI-1 renal): > 10 µM | TGI (HCT-116 colon): > 10 µM | TGI (IGROV1 ovarian): > 10 µM | TGI (RPMI-8226 leukemia): > 10 µM | TGI (SK-MEL-28 melanoma): > 10 µM | TGI (DU-145 prostate): > 10 µM | TGI (K-562 leukemia): > 10 µM | TGI (SNB-19 CNS): > 10 µM | TGI (OVCAR-3 ovarian): > 10 µM | TGI (NCI-H226 lung): > 10 µM | TGI (MDA-N): > 10 µM | TGI (SK-OV-3 ovarian): > 10 µM | TGI (SN12C renal): > 10 µM | TGI (MCF7 breast): > 10 µM | TGI (HOP-92 NSCLC): > 10 µM | TGI (MDA-MB-435): > 10 µM | TGI (TK-10 renal): > 10 µM | TGI (UACC-62 melanoma): > 10 µM | TGI (UO-31 renal): > 10 µM | TGI (SW-620 colon): > 10 µM | TGI (MDA-MB-231 breast): > 10 µM | TGI (HT29 colon): > 10 µM | TGI (HOP-62 NSCLC): > 10 µM | TGI (LOX IMVI melanoma): > 10 µM | TGI (M14 melanoma): > 10 µM | TGI (T-47D breast): > 10 µM | TGI (NCI-H460 lung): > 10 µM | TGI (MOLT-4 leukemia): > 10 µM | TGI (CCRF-CEM leukemia): > 10 µM | TGI (HS 578T breast): > 10 µM | TGI (SF-268 CNS): > 10 µM | TGI (NCI-H522 lung): > 10 µM | TGI (A549 NSCLC): > 10 µM | TGI (SR leukemia): > 10 µM | TGI (OVCAR-4 ovarian): > 10 µM | TGI (SF-295 CNS): > 10 µM | TGI (SK-MEL-5 melanoma): > 10 µM | TGI (EKVX NSCLC): > 10 µM | TGI (KM12 colon): > 10 µM | TGI (BT-549 breast): > 10 µM | TGI (OVCAR-8 ovarian): > 10 µM
